Patent publication EP4722206A1, “BENZO(HETERO)CYCLOALKYL COMPOUNDS FOR ANDROGEN RECEPTOR-DEPENDENT DISEASES” (Haihe Biopharma Co., Ltd., priority 2023, dated 2024)

What was measured:
Androgen receptor (AR) = biological target: T1, Androgen receptor (AR) (Homo sapiens, UniProt P10275); experiment: Androgen receptor (AR) reporter gene assay (ARE Luc); assay type: cell-based; conditions: AR+ARE/Luc HEK293T cells, with 11-KDHT, 24h incubation, Bright-Lite luminescence
T1 construct: expressed in transfected cells; host or cells: AR+ARE/Luc HEK293T cells
T1 sequence (P10275 1-920): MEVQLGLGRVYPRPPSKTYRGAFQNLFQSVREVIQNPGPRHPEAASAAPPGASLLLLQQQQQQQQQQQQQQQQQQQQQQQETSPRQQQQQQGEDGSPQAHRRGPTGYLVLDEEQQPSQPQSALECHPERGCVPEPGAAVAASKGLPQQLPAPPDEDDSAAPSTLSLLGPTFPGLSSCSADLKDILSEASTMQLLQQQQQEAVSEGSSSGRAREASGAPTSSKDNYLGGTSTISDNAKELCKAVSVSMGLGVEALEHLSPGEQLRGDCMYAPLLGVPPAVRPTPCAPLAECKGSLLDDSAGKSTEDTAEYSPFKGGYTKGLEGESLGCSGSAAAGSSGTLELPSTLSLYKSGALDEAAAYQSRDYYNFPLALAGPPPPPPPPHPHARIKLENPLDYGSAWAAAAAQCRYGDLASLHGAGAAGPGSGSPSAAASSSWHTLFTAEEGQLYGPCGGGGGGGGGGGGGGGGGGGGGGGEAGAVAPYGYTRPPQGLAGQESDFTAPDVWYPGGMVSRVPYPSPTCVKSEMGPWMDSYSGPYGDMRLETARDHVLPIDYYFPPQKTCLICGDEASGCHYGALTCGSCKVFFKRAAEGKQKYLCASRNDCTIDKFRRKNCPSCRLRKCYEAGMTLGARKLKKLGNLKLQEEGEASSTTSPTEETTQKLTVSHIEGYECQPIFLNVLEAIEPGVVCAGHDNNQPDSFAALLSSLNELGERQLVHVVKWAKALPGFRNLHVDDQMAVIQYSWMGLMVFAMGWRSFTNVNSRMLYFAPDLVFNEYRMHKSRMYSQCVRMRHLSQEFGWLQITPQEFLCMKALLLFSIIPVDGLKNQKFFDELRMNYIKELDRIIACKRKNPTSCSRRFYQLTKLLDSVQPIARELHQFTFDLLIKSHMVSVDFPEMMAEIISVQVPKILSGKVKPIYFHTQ
Procedure: Experimental Methods: 1. The described compounds were dissolved in 100% DMSO at a final concentration of 10 mM. 100 nL each of 400X compound to be tested and 400X 11-KDHT (40 nM) represtively were added to a 384-well assay plate with Echo, followed by 20 µL of complete medium, and centrifuged at 1000 rpm for 1 min, and oscillated for 20-30 min at room temperature. 2. 20 µL of AR+ARE/Luc HEK293T cells (10,000 cells/well) were inoculated into the assay plate containing the compounds and 11-KDHT, and centrifuged at 1000 rpm for 1 min. The assay plate was incubated in a 37 °C CO2 incubator for 24h. 3. 40 µL of Bright-Lite assay reagent was transferred to each well of the assay plate, centrifuged at 1000 rpm for 1 min, and shaken for 2 min at room temperature protected from light. 4. Luminescence values (RLU) were measured using Envision. […] Table 1. AR inhibition of Representative Compounds

AR-V7 = biological target: T2, AR-V7 (Homo sapiens, UniProt P10275); experiment: AR degradation experiment (AR-V7-HiBiT, Nano-Glo HiBiT Lytic Detection); assay type: cell-based; conditions: 22RV1 cells stably expressing AR-V7-HiBiT, 24 hr at 37 °C; concentration required for degradation 50% of the target protein
T2 construct: fusing HiBiT tag (PromegaTM) into the C-terminus of the AR-V7 genome of 22RV1 cells; host or cells: 22RV1 cells, CRISPR/Cas9 knock-in of HiBiT at the AR-V7 C-terminus
T2 sequence (P10275 1-644 isoform P10275-3): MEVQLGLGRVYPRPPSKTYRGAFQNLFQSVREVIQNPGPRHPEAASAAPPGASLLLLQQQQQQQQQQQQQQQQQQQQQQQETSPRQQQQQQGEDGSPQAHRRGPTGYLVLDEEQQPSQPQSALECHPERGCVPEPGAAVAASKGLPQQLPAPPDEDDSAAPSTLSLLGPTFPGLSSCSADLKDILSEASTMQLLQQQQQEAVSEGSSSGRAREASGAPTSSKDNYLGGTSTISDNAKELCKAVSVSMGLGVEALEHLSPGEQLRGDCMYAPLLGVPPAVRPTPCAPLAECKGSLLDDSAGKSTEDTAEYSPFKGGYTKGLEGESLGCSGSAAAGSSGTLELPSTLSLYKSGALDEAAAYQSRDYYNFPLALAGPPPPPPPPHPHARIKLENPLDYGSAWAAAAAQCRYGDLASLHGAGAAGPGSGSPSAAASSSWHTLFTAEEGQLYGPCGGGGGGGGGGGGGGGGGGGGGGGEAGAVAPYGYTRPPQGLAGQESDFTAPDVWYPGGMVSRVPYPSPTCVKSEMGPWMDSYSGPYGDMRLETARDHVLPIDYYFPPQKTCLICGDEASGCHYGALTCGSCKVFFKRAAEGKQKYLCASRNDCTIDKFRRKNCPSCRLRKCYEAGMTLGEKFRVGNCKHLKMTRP
Procedure: In this experiment, cells stably expressing AR-V7-HiBiT was constructed by fusing HiBiT tag (PromegaTM) into the C-terminus of the AR-V7 genome of 22RV1 cells (ATCC) using CRISPR/Cas9 technology. The concentration of test compounds started from 1000 nM, and diluted with DMSO by 3-fold gradient for 11 points. […]

Row | Structure (SMILES) | IC50 (Androgen receptor (AR)) [µM] | DC50 (AR-V7) [µM]
1 | N#Cc1cc2c(c(Cl)c1OCCCl)CCCC2c1ccc(OCCCNc2ccc3c(c2)C(=O)N(C2CCC(=O)NC2=O)C3=O)nc1 (stereo not shown) [HANT-339] | 0.569 | –
2 | N#Cc1cc2c(c(Cl)c1OCCCl)CCCC2Nc1ccc(OCNc2ccc3c(c2)C(=O)N(C2CCC(=O)NC2=O)C3=O)nc1 (stereo not shown) [HANT-329] | 0.123 | –
3 | N#Cc1cc2c(c(Cl)c1OCCCl)CCCC2Nc1ccc(OCOCNc2ccc3c(c2)C(=O)N(C2CCC(=O)NC2=O)C3=O)nc1 (stereo not shown) [HANT-328] | 1.83 | –
4 | N#Cc1cc2c(c(Cl)c1OCCCl)CCCC2c1ccc(N2CCC(OCCOc3ccc4c(c3)C(=O)N(C3CCC(=O)NC3=O)C4=O)CC2)nc1 (stereo not shown) [HANT-514] | 0.073 | –
5 | N#Cc1cc2c(c(Cl)c1OCCCl)CCCC2Nc1ccc(OCCCCNc2ccc3c(c2)C(=O)N(C2CCC(=O)NC2=O)C3=O)nc1 (stereo not shown) [HANT-331, 4-chloro-3-(2-chloroethoxy)-8-((6-(4-(2-(2,6-dioxopiperidin-3-yl)-1,3-dioxoisoindolin-5-yl)amino)butoxy)pyridin-3-amino)-5,6,7,8-tetrahydronaphthalene-2-carbonitrile] | 0.822 | > 10
6 | N#Cc1cc2c(c(Cl)c1OCCCl)CCCC2c1ccc(OC2CCC(OCCOc3ccc4c(c3)C(=O)N(C3CCC(=O)NC3=O)C4=O)CC2)nc1 (stereo not shown) [HANT-518] | 0.209 | –
7 | N#Cc1cc2c(c(Cl)c1OCCCl)CCCC2c1cnc2c(cnn2CCOCCOc2ccc3c(c2)C(=O)N(C2CCC(=O)NC2=O)C3=O)c1 (stereo not shown) [HANT-515] | 0.754 | –
8 | N#Cc1cc2c(c(Cl)c1OCCCl)CCCC2c1ccc(N2CC(OCCOc3ccc4c(c3)C(=O)N(C3CCC(=O)NC3=O)C4=O)C2)nc1 (stereo not shown) [HANT-513] | 0.0076 | –
9 | N#Cc1cc(C2CCCc3c2cc(C#N)c(OCCCl)c3Cl)cnc1N1CC(OCCOc2ccc3c(c2)C(=O)N(C2CCC(=O)NC2=O)C3=O)C1 (stereo not shown) [HANT-516] | 0.032 | –
10 | N#Cc1cc2c(c(Cl)c1OCCCl)CCCC2c1cnc(N2CCC(OCCCOc3ccc4c(c3)C(=O)N(C3CCC(=O)NC3=O)C4=O)CC2)nc1 (stereo not shown) [HANT-371, 4-chloro-3-(2-chloroethoxy)-8-(2-(4-(3-((2-(2,6-dioxopiperidin-3-yl)-1,3-dioxoisoindol-5-yl)oxy)propoxy)piperidin-1-yl)pyrimidin-5-yl)-5,6,7,8-tetrahydronaphthalene-2-carbonitrile] | 0.292 | 0.284
11 | N#Cc1cc2c(c(Cl)c1OCCCl)CCCC2c1ccc(OCCCCOc2ccc3c(c2)C(=O)N(C2CCC(=O)NC2=O)C3=O)nc1 (stereo not shown) [HANT-338] | 0.657 | > 10
12 | N#Cc1cc2c(c(Cl)c1OCCCl)CCCC2c1cnc(N2CCC(OCCOc3ccc4c(c3)C(=O)N(C3CCC(=O)NC3=O)C4=O)CC2)nc1 (stereo not shown) [HANT-342] | 0.027 | 0.04
13 | N#Cc1cc2c(c(Cl)c1OCCCl)CCCC2c1ccc(OC2CCC(Oc3ccc4c(c3)C(=O)N(C3CCC(=O)NC3=O)C4=O)CC2)nc1 (stereo not shown) [HANT-517] | 0.575 | –
14 | CCOc1c(C#N)cc2c(c1Cl)CCCC2c1cnc(NCCOCCOc2ccc3c(c2)C(=O)N(C2CCC(=O)NC2=O)C3=O)nc1 (stereo not shown) [HANT-354] | 0.021 | 0.013
15 | N#Cc1cc2c(c(Cl)c1OCCCl)CCCC2Nc1ccc(OCOCNc2cccc3c2C(=O)N(C2CCC(=O)NC2=O)C3=O)nc1 (stereo not shown) [HANT-362] | 0.913 | –
16 | N#Cc1cc2c(c(Cl)c1OCCCl)CCCC2c1cnc(NCCOCCOc2ccc3c(c2)C(=O)N(C2CCC(=O)NC2=O)C3=O)nc1 (stereo not shown) [HANT-315, 4-chloro-3-(2-chloroethoxy)-8-(2-(2-(2-(2,6-dioxopiperidin-3-yl)-1,3-dioxoisoindolin-5-yl)oxy)ethoxy-amino)pyrimidin-5-yl-5,6,7,8-tetrahydronaphthalene-2-carbonitrile] | 0.03 | 0.0087
17 | CCOc1c(C#N)cc2c(c1Cl)CCCC2Nc1ccc(OCCCNc2ccc3c(c2)C(=O)N(C2CCC(=O)NC2=O)C3=O)nc1 (stereo not shown) [HANT-312, 4-chloro-8-(6-(3-((2-(2,6-dioxopiperidin-3-yl)-1,3-dioxoisoindolin-5-yl)amino)propoxy)pyridin-3-ylamino)-3-ethoxy-5,6,7,8-tetrahydronaphthalene-2-carbonitrile] | 0.377 | –
18 | N#Cc1cc2c(c(Cl)c1OCCCl)CCCC2c1cnc(N2CCC(OC3CN(c4ccc5c(c4)C(=O)N(C4CCC(=O)NC4=O)C5=O)C3)CC2)nc1 (stereo not shown) [HANT-390] | 0.476 | –
19 | CCOc1c(C#N)cc2c(c1Cl)CCCC2c1cnc(NCCOC2CN(c3ccc4c(c3)C(=O)N(C3CCC(=O)NC3=O)C4=O)C2)nc1 (stereo not shown) [HANT-431, 4-chloro-8-(2-((2-(2-(1-(2-(2,6-dioxopiperidin-3-yl)-1,3-dioxoisoindol-5-yl)azetidin-3-yl)oxy)ethyl)amino)pyrimidin-5-yl)-3-ethoxy-5,6,7,8-tetrahydronaphthalene-2-carbonitrile] | 0.744 | –
20 | N#Cc1cc2c(c(Cl)c1OCCCl)CCCC2c1cnc(N2CCC(OCCNc3ccc4c(c3)C(=O)N(C3CCC(=O)NC3=O)C4=O)C2)nc1 (stereo not shown) [HANT-393] | 0.428 | –
21 | N#Cc1cc2c(c(Cl)c1OCCCl)CCCC2c1ccc(N2CCC(OCCCOc3ccc4c(c3)C(=O)N(C3CCC(=O)NC3=O)C4=O)CC2)nc1 (stereo not shown) [HANT-512] | 0.318 | –
22 | N#Cc1cc2c(c(Cl)c1OCCCl)CCCC2c1ccc(NCCOCCOc2ccc3c(c2)C(=O)N(C2CCC(=O)NC2=O)C3=O)nc1 (stereo not shown) [HANT-346] | 0.029 | 0.024
23 | N#Cc1cc2c(c(Cl)c1OCCCl)CCCC2c1cnc(NCCCNc2ccc3c(c2)C(=O)N(C2CCC(=O)NC2=O)C3=O)nc1 (stereo not shown) [HANT-314] | 0.49 | –
24 | N#Cc1cc2c(c(Cl)c1OCCCl)CCC[C@@H]2c1cnc(NCCOCCOc2ccc3c(c2)C(=O)N(C2CCC(=O)NC2=O)C3=O)nc1 (stereo partly shown) [HANT-315-P2] | 3.87 | –
25 | N#Cc1cc2c(c(Cl)c1OCCCl)CCC[C@H]2c1cnc(NCCOCCOc2ccc3c(c2)C(=O)N(C2CCC(=O)NC2=O)C3=O)nc1 (stereo partly shown) [HANT-315-P1] | 0.002 | 0.0043
26 | N#Cc1cc2c(c(Cl)c1OCCCl)CCCC2c1cnc(N2CC(OCCOc3ccc4c(c3)C(=O)N(C3CCC(=O)NC3=O)C4=O)C2)nc1 (stereo not shown) [HANT-519] | 0.023 | –
